This assay relates to BDF1 mice, s.c. Lewis lung carcinoma, T/C %. Description: NCI In Vivo Anticancer Drug Screen. Data for tumor model Lewis Lung Carcinoma (subcutaneous) in B6D2F1 (BDF1) mice. The procedure, abridged: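 Antitumor effect in vivo is scored from survival or tumor burden, reported as treated relative to vehicle controls.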
[1] abbreviates: endpoint: median survival time, dose: 0.5 mg/kg/injection, schedule: Q01DX009 (ip), vehicle: Klucel (hydroxypropylcellulose) (HPC), higher = longer survival.
The mark [2] stands for this setting: endpoint: median survival time, dose: 1.0 mg/kg/injection, schedule: Q01DX009 (ip), vehicle: Klucel (hydroxypropylcellulose) (HPC), higher = longer survival.
[3] abbreviates: endpoint: mean tumor weight, dose: 5.0 mg/kg/injection, schedule: Q01DX011 (ip), vehicle: other, higher = larger tumour.
Setting [4] is: endpoint: mean tumor weight, dose: 10.0 mg/kg/injection, schedule: Q01DX011 (ip), vehicle: other, higher = larger tumour.
[5] abbreviates: endpoint: mean tumor weight, dose: 20.0 mg/kg/injection, schedule: Q01DX011 (ip), vehicle: other, higher = larger tumour.
Setting [6] is: endpoint: mean tumor weight, dose: 40.0 mg/kg/injection, schedule: Q01DX011 (ip), vehicle: other, higher = larger tumour.

These results are taken from PubChem BioAssay AID270 (DTP/NCI, 2004).

“And” between values parts separate entries of the source, which are not always exact repeats. Equal entries are not always repeated. Inconclusive results are not listed.

Take `O=NN(CCCl)C(=O)NC1CCC(=O)NC1=O` (stereo not drawn): the T/C reads like this: under setting [1], 107 % of control and 110 % of control; under setting [2], 100 % of control and 105 % of control; (endpoint: median survival time, dose: 1.25 mg/kg/injection, schedule: Q01DX009 (ip), vehicle: other, higher = longer survival) 122 % of control; (endpoint: median survival time, dose: 2.0 mg/kg/injection, schedule: Q01DX009 (ip), vehicle: Klucel (hydroxypropylcellulose) (HPC), higher = longer survival) 101 % of control and 117 % of control; (endpoint: median survival time, dose: 2.0 mg/kg/injection, schedule: Q02DX009 (ip), vehicle: saline with Tween-80, higher = longer survival) 90 % of control; (endpoint: median survival time, dose: 3.0 mg/kg/injection, schedule: Q02DX009 (ip), vehicle: saline with Tween-80, higher = longer survival) 93 % of control. For the same compound, the T/C is, setting by setting: (endpoint: median survival time, dose: 4.0 mg/kg/injection, schedule: Q01DX009 (ip), vehicle: Klucel (hydroxypropylcellulose) (HPC), higher = longer survival) 182 % of control; (endpoint: median survival time, dose: 5.0 mg/kg/injection, schedule: Q01DX001 (ip), vehicle: gum acacia, higher = longer survival) 89 % of control; (endpoint: median survival time, dose: 5.0 mg/kg/injection, schedule: Q01DX001 (ip), vehicle: other, higher = longer survival) 120 % of control; (endpoint: median survival time, dose: 5.0 mg/kg/injection, schedule: Q01DX001 (ip), vehicle: saline, higher = longer survival) 96 % of control; (endpoint: median survival time, dose: 6.0 mg/kg/injection, schedule: Q04DX003 (ip), vehicle: saline with Tween-80, higher = longer survival) 93 % of control; (endpoint: median survival time, dose: 10.0 mg/kg/injection, schedule: Q01DX001 (ip), vehicle: other, higher = longer survival) 107 % of control and 124 % of control. In addition, the T/C was 111 % of control (endpoint: median survival time, dose: 10.0 mg/kg/injection, schedule: Q01DX001 (ip), vehicle: saline with Tween-80, higher = longer survival); 101 % of control (endpoint: median survival time, dose: 10.0 mg/kg/injection, schedule: Q01DX001 (ip), vehicle: saline, higher = longer survival); 120 % of control (endpoint: median survival time, dose: 10.0 mg/kg/injection, schedule: Q04DX003 (ip), vehicle: saline with Tween-80, higher = longer survival); 108 % of control (endpoint: median survival time, dose: 15.0 mg/kg/injection, schedule: Q01DX001 (ip), vehicle: saline with Tween-80, higher = longer survival); 208 % of control (endpoint: median survival time, dose: 22.5 mg/kg/injection, schedule: Q01DX001 (ip), vehicle: saline with Tween-80, higher = longer survival); 168 % of control (endpoint: median survival time, dose: 26.0 mg/kg/injection, schedule: Q01DX001 (ip), vehicle: gum acacia, higher = longer survival). Further, the T/C was 156 % of control (endpoint: median survival time, dose: 40.0 mg/kg/injection, schedule: Q01DX001 (ip), vehicle: saline, higher = longer survival); 93 % of control (endpoint: median tumor weight (est.), dose: 7.6 mg/kg/injection, schedule: Q01DX001 (ip), vehicle: gum acacia, higher = larger tumour); 10 % of control (endpoint: median tumor weight (est.), dose: 15.0 mg/kg/injection, schedule: Q01DX001 (ip), vehicle: gum acacia, higher = larger tumour).
In the case of `CC(C)NCC(=O)c1ccc(O)c(O)c1`, the T/C is 107 % of control (endpoint: median survival time, dose: 5.0 mg/kg/injection, schedule: Q01DX009 (ip), vehicle: saline, higher = longer survival); 114 % of control (endpoint: median survival time, dose: 10.0 mg/kg/injection, schedule: Q01DX009 (ip), vehicle: saline, higher = longer survival); 114 % of control (endpoint: median survival time, dose: 20.0 mg/kg/injection, schedule: Q01DX009 (ip), vehicle: saline, higher = longer survival); 111 % of control (endpoint: median survival time, dose: 40.0 mg/kg/injection, schedule: Q01DX009 (ip), vehicle: saline, higher = longer survival).
With `CCCC(Sc1nc(N)nc2nc[nH]c12)C(=O)O` (stereo not drawn), the T/C is, setting by setting: under setting [3], 115 % of control; under setting [4], 58 % of control; under setting [5], 17 % of control; under setting [6], 49 % of control and 69 % of control; (endpoint: mean tumor weight, dose: 160.0 mg/kg/injection, schedule: Q01DX011 (ip), vehicle: other, higher = larger tumour) 64 % of control; (endpoint: mean tumor weight, dose: 320.0 mg/kg/injection, schedule: Q01DX011 (ip), vehicle: other, higher = larger tumour) 50 % of control and 69 % of control. Further, under “endpoint: mean tumor weight, dose: 640.0 mg/kg/injection, schedule: Q01DX011 (ip), vehicle: other, higher = larger tumour”, the T/C was 48 % of control.
Turning to `CCCCCCC(=O)NC1=C(N2CC2)C(=O)C(NC(=O)CCCCCC)=C(N2CC2)C1=O`, the T/C is, setting by setting: (endpoint: mean tumor weight, dose: 3.8 mg/kg/injection, schedule: Q01DX011 (ip), vehicle: other, higher = larger tumour) 101 % of control; (endpoint: mean tumor weight, dose: 7.5 mg/kg/injection, schedule: Q01DX011 (ip), vehicle: other, higher = larger tumour) 81 % of control; (endpoint: mean tumor weight, dose: 30.0 mg/kg/injection, schedule: Q01DX011 (ip), vehicle: other, higher = larger tumour) 78 % of control; (endpoint: mean tumor weight, dose: 60.0 mg/kg/injection, schedule: Q01DX011 (ip), vehicle: other, higher = larger tumour) 30 % of control.
`O=c1c(O)c(-c2ccc(O)c(O)c2)oc2cc(O)cc(O)c12`: the T/C by setting is: (endpoint: mean tumor weight, dose: 12.5 mg/kg/injection, schedule: Q01DX011 (ip), vehicle: saline, higher = larger tumour) 86 % of control; (endpoint: mean tumor weight, dose: 25.0 mg/kg/injection, schedule: Q01DX011 (ip), vehicle: saline, higher = larger tumour) 71 % of control; (endpoint: mean tumor weight, dose: 50.0 mg/kg/injection, schedule: Q01DX011 (ip), vehicle: saline, higher = larger tumour) 61 % of control; (endpoint: mean tumor weight, dose: 100.0 mg/kg/injection, schedule: Q01DX011 (ip), vehicle: saline, higher = larger tumour) 100 % of control.
Regarding `N=[N+]=CC(=O)CCC(NC(=O)C(CCC(=O)C=[N+]=N)NC(=O)CCC(N)C(=O)O)C(=O)O` (stereo not drawn), the T/C is 103 % of control (endpoint: mean tumor weight, dose: 0.06 mg/kg/injection, schedule: Q01DX011 (ip), vehicle: water, higher = larger tumour); 34 % of control (endpoint: mean tumor weight, dose: 0.12 mg/kg/injection, schedule: Q01DX011 (ip), vehicle: water, higher = larger tumour); 17 % of control (endpoint: mean tumor weight, dose: 0.25 mg/kg/injection, schedule: Q01DX011 (ip), vehicle: water, higher = larger tumour); 120 % of control (endpoint: median survival time, dose: 0.1 mg/kg/injection, schedule: Q01DX011 (ip), vehicle: other, higher = longer survival); 89 % of control (endpoint: median survival time, dose: 0.2 mg/kg/injection, schedule: Q01DX011 (ip), vehicle: other, higher = longer survival); 116 % of control (endpoint: median survival time, dose: 0.4 mg/kg/injection, schedule: Q01DX011 (ip), vehicle: other, higher = longer survival). For the same compound, the T/C is 107 % of control (endpoint: median survival time, dose: 0.8 mg/kg/injection, schedule: Q01DX011 (ip), vehicle: other, higher = longer survival) and 101 % of control (endpoint: median survival time, dose: 1.6 mg/kg/injection, schedule: Q01DX011 (ip), vehicle: other, higher = longer survival).
On to `COC(COC(N)=O)C1=C(N2CC2)C(=O)C(C)=C(N2CC2)C1=O` (stereo not drawn), for which the T/C reads like this: (endpoint: median survival time, dose: 0.03 mg/kg/injection, schedule: Q01DX009 (ip), vehicle: Klucel (hydroxypropylcellulose) (HPC), higher = longer survival) 96 % of control; (endpoint: median survival time, dose: 0.12 mg/kg/injection, schedule: Q01DX009 (ip), vehicle: Klucel (hydroxypropylcellulose) (HPC), higher = longer survival) 103 % of control; (endpoint: median survival time, dose: 0.25 mg/kg/injection, schedule: Q01DX009 (ip), vehicle: Klucel (hydroxypropylcellulose) (HPC), higher = longer survival) 107 % of control; under setting [1], 119 % of control; under setting [2], 93 % of control.
With `CN(C)c1ccc(/C=C\c2ccnc3ccccc23)cc1`, the T/C was 103 % of control (endpoint: mean tumor weight, dose: 1.25 mg/kg/injection, schedule: Q01DX011 (ip), vehicle: other, higher = larger tumour); 84 % of control (endpoint: mean tumor weight, dose: 2.5 mg/kg/injection, schedule: Q01DX011 (ip), vehicle: other, higher = larger tumour); 75 % of control under setting [3]; 71 % of control and 83 % of control under setting [4]; 54 % of control and 68 % of control under setting [5].
For `CCC1=C(c2cc(Cl)c3ccccc3c2OCC(=O)O)OC(CC)(C(=O)c2cc(Cl)c3ccccc3c2OCC(=O)O)CC1` (stereo not drawn), the T/C (endpoint: mean tumor weight, dose: 2.3 mg/kg/injection, schedule: Q01DX011 (ip), vehicle: carboxymethylcellulose (CMC), higher = larger tumour) was 82 % of control and the T/C (endpoint: mean tumor weight, dose: 3.5 mg/kg/injection, schedule: Q01DX011 (ip), vehicle: carboxymethylcellulose (CMC), higher = larger tumour) was 76 % of control.
As to `CN(N=O)C(=O)NC1CCOCC1`, the T/C (endpoint: median survival time, dose: 475.0 mg/kg/injection, schedule: Q01DX001 (ip), vehicle: saline with Tween-80, higher = longer survival) is 108 % of control.
Turning to `C[C@]12CC[C@H]3[C@@H](CC[C@]4(O)C[C@@H](O)CC[C@]34C=O)[C@@]1(O)CC[C@@H]2C1=CC(=O)OC1`, the T/C reads like this: (endpoint: median survival time, dose: 3.12 mg/kg/injection, schedule: Q01DX009 (ip), vehicle: Klucel (hydroxypropylcellulose) (HPC), higher = longer survival) 87 % of control; (endpoint: median survival time, dose: 12.5 mg/kg/injection, schedule: Q01DX009 (ip), vehicle: Klucel (hydroxypropylcellulose) (HPC), higher = longer survival) 113 % of control; (endpoint: median survival time, dose: 25.0 mg/kg/injection, schedule: Q01DX009 (ip), vehicle: Klucel (hydroxypropylcellulose) (HPC), higher = longer survival) 116 % of control.
As to `CSc1ncnc2c1ncn2C1CCCO1` (stereo not drawn), the T/C was 103 % of control under setting [4]; 53 % of control under setting [5]; 68 % of control under setting [6]; 86 % of control (endpoint: mean tumor weight, dose: 80.0 mg/kg/injection, schedule: Q01DX011 (ip), vehicle: other, higher = larger tumour).
For `COc1cc(NC(=O)N(CCCl)N=O)cc(OC)c1OC`, the T/C is 103 % of control (endpoint: median survival time, dose: 3.12 mg/kg/injection, schedule: Q01DX009 (ip), vehicle: other, higher = longer survival); 102 % of control (endpoint: median survival time, dose: 6.25 mg/kg/injection, schedule: Q01DX009 (ip), vehicle: other, higher = longer survival); 101 % of control (endpoint: median survival time, dose: 12.5 mg/kg/injection, schedule: Q01DX009 (ip), vehicle: other, higher = longer survival); 94 % of control (endpoint: median survival time, dose: 25.0 mg/kg/injection, schedule: Q01DX009 (ip), vehicle: other, higher = longer survival); 99 % of control (endpoint: median survival time, dose: 50.0 mg/kg/injection, schedule: Q01DX009 (ip), vehicle: other, higher = longer survival).
